# According to paper PMC8286840, “Identifying SARS-CoV-2 antiviral compounds by screening for small molecule inhibitors of Nsp3 papain-like protease” (Biochemical Journal, 2021):
# Counter-ions that a name gives are not always drawn. Like-named read-outs stand apart in the source and are kept apart here.
# Columns and labels:
# [1] = molecular target: T1, SARS-CoV-2 PLpro (nsp3 1564–1878) (Severe acute respiratory syndrome coronavirus 2, UniProt P0DTD1); test: biochemical; set-up: FRET-quenched peptide (Pro3) cleavage by PLpro, 10 min pre-incubation, slope over 20 min, normalised to no-compound control; settings: low concentration screen, read-out: % of control remaining
# [2] = molecular target: T1, SARS-CoV-2 PLpro (nsp3 1564–1878); test: biochemical; set-up: FRET-quenched peptide (Pro3) cleavage by PLpro, 10 min pre-incubation, slope over 20 min, normalised to no-compound control; settings: high concentration screen, read-out: % of control remaining
structure (smiles),measurement,setting,value
O=C1NC(=O)c2c1c1c3ccccc3[nH]c1c1[nH]c3cc(Br)ccc3c21 [Cdk4 Inhibitor],remaining activity at 1.25 µM,[1]; Well no.=2404,99.9%
same,remaining activity at 3.75 µM,[2]; Well no.=2404,99.9%
Nc1n[nH]c(N)c1N=Nc1ccc(O)cc1 [Cdk9 Inhibitor II],remaining activity at 1.25 µM,[1]; Well no.=2395,104%
same,remaining activity at 3.75 µM,[2]; Well no.=2395,103%
"CC(C)n1cnc2c(NCc3ccccc3O)nc(NCCCO)nc21 [Cdk Inhibitor, p35]",remaining activity at 1.25 µM,[1]; Well no.=2387,94.5%
same,remaining activity at 3.75 µM,[2]; Well no.=2387,97%
CC(C)c1nn(-c2c(Cl)cccc2Cl)c2nc(Cc3ccc(OCCO)cc3)[nH]c(=O)c12 [Cdk/Crk Inhibitor],remaining activity at 1.25 µM,[1]; Well no.=2420,105%
same,remaining activity at 3.75 µM,[2]; Well no.=2420,105%
COc1cc2c(Oc3ccc4[nH]c(C)cc4c3F)ncnc2cc1OCCCN1CCCC1 [Cediranib (AZD2171)],remaining activity at 1.25 µM,[1]; Well no.=4999,101%
same,remaining activity at 3.75 µM,[2]; Well no.=4999,103%
N[C@@H](C(=O)N[C@@H]1C(=O)N2C(C(=O)O)=C(Cl)CS[C@H]12)c1ccccc1 [Cefaclor],remaining activity at 1.25 µM,[1]; Well no.=88,99.7%
same,remaining activity at 3.75 µM,[2]; Well no.=88,101%
Cc1nnc(SCC2=C(C(=O)O)N3C(=O)[C@@H](NC(=O)Cn4cnnn4)[C@H]3SC2)s1 [Cefazolin sodium],remaining activity at 1.25 µM,[1]; Well no.=178,101%
same,remaining activity at 3.75 µM,[2]; Well no.=178,99.4%
CO/N=C(\C(=O)N[C@@H]1C(=O)N2C(C(=O)[O-])=C(C[N+]3(C)CCCC3)CS[C@H]12)c1csc(N)n1 [Cefepime],remaining activity at 1.25 µM,[1]; Well no.=1842,90%
same,remaining activity at 3.75 µM,[2]; Well no.=1842,88.2%
CO[C@@]1(NC(=O)CSCC#N)C(=O)N2C(C(=O)O)=C(CSc3nnnn3C)CS[C@@H]21 [Cefmetazole sodium],remaining activity at 1.25 µM,[1]; Well no.=134,101%
same,remaining activity at 3.75 µM,[2]; Well no.=134,99.6%
CO/N=C(\C(=O)N[C@@H]1C(=O)N2C(C(=O)O)=C(Cn3ccc(=N)n3CCO)CS[C@H]12)c1csc(N)n1 [Cefoselis sulfate],remaining activity at 1.25 µM,[1]; Well no.=5199,96.6%
same,remaining activity at 3.75 µM,[2]; Well no.=5199,100%
CO/N=C(\C(=O)N[C@@H]1C(=O)N2C(C(=O)O)=C(COC(C)=O)CS[C@H]12)c1csc(N)n1 [Cefotaxime sodium],remaining activity at 1.25 µM,[1]; Well no.=186,93.2%
same,remaining activity at 3.75 µM,[2]; Well no.=186,94.1%
NC(=O)c1cc[n+](CC2=C(C(=O)O)N3C(=O)[C@@H](NC(=O)[C@@H](c4ccccc4)S(=O)(=O)[O-])[C@H]3SC2)cc1 [Cefsulodin sodium salt hydrate],remaining activity at 1.25 µM,[1]; Well no.=92,98.3%
same,remaining activity at 3.75 µM,[2]; Well no.=92,99.3%
CC(C)(O/N=C(\C(=O)N[C@@H]1C(=O)N2C(C(=O)[O-])=C(C[n+]3ccccc3)CS[C@H]12)c1csc(N)n1)C(=O)O [Ceftazidime],remaining activity at 1.25 µM,[1]; Well no.=2221,98.3%
same,remaining activity at 3.75 µM,[2]; Well no.=2221,98%
CO/N=C(\C(=O)N[C@@H]1C(=O)N2C(C(=O)O)=C(CSC(=O)c3ccco3)CS[C@H]12)c1csc(N)n1 [Ceftiofur HCl],remaining activity at 1.25 µM,[1]; Well no.=5288,90.5%
same,remaining activity at 3.75 µM,[2]; Well no.=5288,91.7%
CO/N=C(\C(=O)N[C@@H]1C(=O)N2C(C(=O)O)=C(CSc3nc(=O)c(O)nn3C)CS[C@H]12)c1csc(N)n1 [Ceftriaxone sodium],remaining activity at 1.25 µM,[1]; Well no.=132,105%
same,remaining activity at 3.75 µM,[2]; Well no.=132,105%
CC1=C(O)C(=O)C=C2C1=CC=C1[C@@]2(C)CC[C@@]2(C)[C@@H]3C[C@](C)(C(=O)O)CC[C@]3(C)CC[C@]12C [Celastrol],remaining activity at 1.25 µM,[1]; Well no.=3430,95.7%
same,remaining activity at 3.75 µM,[2]; Well no.=3430,94.6%
Cc1ccc(-c2cc(C(F)(F)F)nn2-c2ccc(S(N)(=O)=O)cc2)cc1 [Celecoxib],remaining activity at 1.25 µM,[1]; Well no.=1818,88.6%
same,remaining activity at 3.75 µM,[2]; Well no.=1818,88.2%
CCc1cc(-c2noc(-c3cc(OC)nc(C4CCCC4)c3)n2)cc(C)c1OC[C@@H](O)CO [Cenerimod],remaining activity at 1.25 µM,[1]; Well no.=7052,105%
same,remaining activity at 3.75 µM,[2]; Well no.=7052,105%
CCCCOCCOc1ccc(-c2ccc3c(c2)/C=C(/C(=O)Nc2ccc([S@@+]([O-])Cc4cncn4CCC)cc2)CCCN3CC(C)C)cc1 [Cenicriviroc Mesylate],remaining activity at 1.25 µM,[1]; Well no.=8311,99.4%
same,remaining activity at 3.75 µM,[2]; Well no.=8311,99.6%
CCCCOCCOc1ccc(-c2ccc3c(c2)/C=C(/C(=O)Nc2ccc([S@@+]([O-])Cc4cncn4CCC)cc2)CCCN3CC(C)C)cc1 [Cenicriviroc],remaining activity at 1.25 µM,[1]; Well no.=8515,104%
same,remaining activity at 3.75 µM,[2]; Well no.=8515,105%
CN(C)CCOC(=O)COc1ccc(Cl)cc1 [Centrophenoxine hydrochloride],remaining activity at 1.25 µM,[1]; Well no.=46,103%
same,remaining activity at 3.75 µM,[2]; Well no.=46,107%
CC1=C(C(=O)O)N2C(=O)[C@@H](NC(=O)[C@H](N)c3ccccc3)[C@H]2SC1 [Cephalexin hydrate],remaining activity at 1.25 µM,[1]; Well no.=34,95.4%
same,remaining activity at 3.75 µM,[2]; Well no.=34,95.3%
C/C=C(\C)C(=O)N[C@@H](c1ccccc1)[C@@H](O)C(=O)O[C@H]1C[C@@]2(O)[C@@H](OC(=O)c3ccccc3)[C@@H]3[C@]4(OC(C)=O)CO[C@@H]4C[C@H](O)[C@@]3(C)C(=O)[C@H](OC(C)=O)C(=C1C)C2(C)C [Cephalomannine],remaining activity at 1.25 µM,[1]; Well no.=5204,97.2%
same,remaining activity at 3.75 µM,[2]; Well no.=5204,99.1%
CC(=O)OCC1=C(C(=O)O)N2C(=O)[C@@H](NC(=O)Cc3cccs3)[C@H]2SC1 [Cephalothin sodium],remaining activity at 1.25 µM,[1]; Well no.=224,93.6%
same,remaining activity at 3.75 µM,[2]; Well no.=224,96.4%
CC(=O)OCC1=C(C(=O)O)N2C(=O)[C@@H](NC(=O)CSc3ccncc3)[C@H]2SC1 [Cephapirin sodium],remaining activity at 1.25 µM,[1]; Well no.=188,101%
same,remaining activity at 3.75 µM,[2]; Well no.=188,99.7%
COc1ccc2cc1Oc1ccc(cc1)C[C@H]1c3c(cc4c(c3Oc3cc5c(cc3OC)CCN(C)[C@@H]5C2)OCO4)CCN1C [Cepharanthine],remaining activity at 1.25 µM,[1]; Well no.=3555,102%
same,remaining activity at 3.75 µM,[2]; Well no.=3555,106%
CC1=C(C(=O)O)N2C(=O)[C@@H](NC(=O)[C@H](N)C3=CCC=CC3)[C@H]2SC1 [Cephradine],remaining activity at 1.25 µM,[1]; Well no.=236,98.9%
same,remaining activity at 3.75 µM,[2]; Well no.=236,100%
COCc1c(C(C)C)nc(C(C)C)c(/C=C/[C@@H](O)C[C@@H](O)CC(=O)O)c1-c1ccc(F)cc1 [Cerivastatin],remaining activity at 1.25 µM,[1]; Well no.=1571,91.1%
same,remaining activity at 3.75 µM,[2]; Well no.=1571,93.5%
C/C=C/C/C=C/CCC(=O)[C@H]1O[C@H]1C(N)=O [Cerulenin],remaining activity at 1.25 µM,[1]; Well no.=3137,93%
same,remaining activity at 3.75 µM,[2]; Well no.=3137,102%
O=C(O)COCCN1CCN(C(c2ccccc2)c2ccc(Cl)cc2)CC1 (stereo not drawn) [Cetirizine 2HCl],remaining activity at 1.25 µM,[1]; Well no.=1712,96.2%
same,remaining activity at 3.75 µM,[2]; Well no.=1712,98.8%
O=C(O)COCCN1CCN(C(c2ccccc2)c2ccc(Cl)cc2)CC1 (stereo not drawn) [Cetirizine (dihydrochloride)],remaining activity at 1.25 µM,[1]; Well no.=7325,104%
same,remaining activity at 3.75 µM,[2]; Well no.=7325,103%
C/C=C(/C)C(=O)O[C@H]1CC[C@@]2(C)[C@@H]3CC[C@H]4[C@]5(O)C[C@H](O)[C@@]6(O)[C@@H](CN7C[C@@H](C)CC[C@H]7[C@@]6(C)O)[C@]5(O)C[C@@]42O[C@]13O [Cevadine],remaining activity at 1.25 µM,[1]; Well no.=3139,103%
same,remaining activity at 3.75 µM,[2]; Well no.=3139,102%
C[C@@H]1O[C@@]2(CS1)CN1CCC2CC1 [Cevimeline (hydrochloride hemihydrate)],remaining activity at 1.25 µM,[1]; Well no.=7571,91.5%
same,remaining activity at 3.75 µM,[2]; Well no.=7571,90.9%
